According to BindingDB's records for PubMed 2156995 (Rhone-Poulenc Sante, 1990):
Where “and” joins values, the source holds several entries; their conditions need not be identical. Identical values can stand only once.

The molecules below were run against Platelet-activating factor receptor (Homo sapiens, UniProt P25105).
Platelet-activating factor receptor, sequence (P25105 whole entry): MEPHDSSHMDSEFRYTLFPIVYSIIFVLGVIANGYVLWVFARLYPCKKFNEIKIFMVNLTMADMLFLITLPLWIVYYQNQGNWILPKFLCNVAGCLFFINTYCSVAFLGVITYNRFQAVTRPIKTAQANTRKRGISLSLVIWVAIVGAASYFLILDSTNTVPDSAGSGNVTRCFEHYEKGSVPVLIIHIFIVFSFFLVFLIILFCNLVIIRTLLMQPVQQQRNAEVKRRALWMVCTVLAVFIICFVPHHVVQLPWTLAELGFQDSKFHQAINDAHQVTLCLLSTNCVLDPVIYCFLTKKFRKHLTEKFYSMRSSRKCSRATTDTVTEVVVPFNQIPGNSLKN
`C[C@@H]1C(=O)O[C@H]2[C@H](O)C34[C@H]5C[C@@H](C(C)(C)C)C36C(O)C(=O)O[C@H]6O[C@@]4(C(=O)O5)[C@@]12O` (some centres undefined) [BN 52021] was tested, and the Ki was 0.964 µM and 0.643 µM. `CCCCCCCCCCCCCCCCCCNC(=O)OCC1CCC(COP(=O)([O-])OCC[n+]2cccc3ccccc32)O1` (centres undefined) [NSC_108044] was tested, and the Ki was 0.129 µM and 0.13 µM. In the case of `CCCCCCCCCCCCCCCCCCNC(=O)OCC(COCCCC[n+]1ccsc1)OC(=O)OC` (centres undefined) [CAS_129364], the Ki is reported as 0.0386 µM and 0.0169 µM. In the case of `Cc1nnc2n1-c1sc(Br)cc1C(c1ccccc1Cl)=NC2` [2-Bromo-4-(2-chloro-phenyl)-9-methyl-6H-1-thia-5,7,8,9a-tetraaza-cyclopenta[e]azulene], the Ki is reported as 0.0805 µM and 0.0174 µM.
